Measurements taken from patent US20210308173A1, “PHARMACEUTICAL COMPOSITION COMPRISING CYCLODEXTRIN COMPLEXES OF ANETHOLE TRITHIONE OR DERIVATIVES THEREOF” (priority 2018, published 2021).
Values after ≈ are worked out from the molar mass of the structure shown.

What was measured:
Format in all cases: physicochemical
[1] = Cyclodextrin solubilization screening of AOL; settings: water, 25 °C, thermodynamic from solid, read-out: intrinsic solubility in water
[2] = Incompatibility of AOL with lipid carriers (visual examination)
Experimental: 100 mg of AOL were successfully dissolved in 20 mL of polyglyceryl-3 dioleate (Plurol® Oleique). A homogenous vividly orange colored solution was obtained with less than 5 minutes of magnetic stirring.
The obtained solution turned greed with obvious aspect and odor having turned rancid.
100 mg of AOL were successfully dissolved in 20 mL of 2-[2,3-bis(2-hydroxyethoxy)propoxy]ethanol; hexadecanoic acid; octadecanoic acid (Labrafil® M1944). A homogenous orange colored solution was obtained with less than 5 minutes of magnetic stirring.
The obtained solution turned dark green.
A new solution of 5 mg/mL AOL in Labrafil® M1944 and stocked in a hermetically closed recipient.

[3] = Co-solvent addition: AOL solubility; settings: for solubility at 4 h: aqueous with cosolvent or surfactant or cyclodextrin, thermodynamic from solid
Experimental: SBE-β-CD compatible excipients, namely polyethylene glycol and polysorbate (Tween), were evaluated for their AOL aqueous solubilizing power. Screening was carried out in same conditions as that of solubilization screening by cyclodextrins (see Example 3).
Briefly, 20% (w/w) solutions of each excipient were prepared. An excess of AOL was added and the solutions were analyzed by HPLC after 4 hours of stirring.
The effect of the combination of SBE-β-CD and Tween 80 was measured in a comparative assay by solubilizing AOL in: (A) Tween 80, 10% (w/w); (B) SBE-β-CD 10% (w/w) (C) Tween 80 and SBE-β-CD 10% (w/w) each; (D) Tween 80 20% (w/w) (E) SBE-β-CD 20% (w/w); and (F) Tween 80 and SBE-β-CD 20% (w/w) each.
Further assays, resumed in Tables 7 and 8, confirmed that Tween 80/SBE-β-CD is a promising excipient mixture for the solubilization of AOL.

Structure (SMILES): COc1ccc(-c2cc(=S)ss2)cc1 [AOL, 5-(4-methoxyphenyl)-3H-1,2-dithiole-3-thione]
- solubility [1]: ~0.2 µg/mL (≈ 0.832 µM)
- visual examination of the solution ([2]; 5 mg/mL in Labrafil M1944, hermetically closed recipient, 24 hours at room temperature): same stability problem
- magnetic stirring time to homogenous solution ([2]; 100 mg in 20 mL Labrafil M1944): less than 5 minutes
- magnetic stirring time to homogenous solution ([2]; 100 mg in 20 mL polyglyceryl-3 dioleate (Plurol Oleique)): less than 5 minutes
- visual examination of the solution ([2]; Labrafil M1944, after 24 hours at room temperature): intense color change
- visual examination of the solution ([2]; Plurol Oleique, after 24 hours at room temperature): intense color change
- stability within lipid carriers ([2]; period of 24 hours, visual observation): unstable
- chemical stability on storage ([3]; Tween 80 at 20% (w/w) aqueous media): chemical stability issues
- solubility at 4 h ([3]; aqueous HP-β-CD solution, HP-β-CD 20% (w/w), Cremophor 10% (w/w)): 545 µg/mL
- solubility at 4 h ([3]; aqueous HP-β-CD solution, HP-β-CD 20% (w/w), Cremophor 20% (w/w)): 814 µg/mL
- solubility at 4 h ([3]; aqueous HP-β-CD solution, HP-β-CD 20% (w/w), PVP 12PF 0.5% (w/w)): 296 µg/mL
- solubility at 4 h ([3]; aqueous HP-β-CD solution, HP-β-CD 20% (w/w), PVP 12PF 2.0% (w/w)): 291 µg/mL
- solubility at 4 h ([3]; aqueous HP-β-CD solution, HP-β-CD 20% (w/w), Tween 80 2% (w/w)): 329 µg/mL
- solubility at 4 h ([3]; aqueous HP-β-CD solution, HP-β-CD 20% (w/w), Tween 80 10% (w/w)): 396 µg/mL
- solubility at 4 h ([3]; aqueous HP-β-CD solution, HP-β-CD 20% (w/w), Tween 80 20% (w/w)): 660 µg/mL
- solubility at 4 h ([3]; aqueous HP-β-CD solution, HP-β-CD 20% (w/w), co-solvent 0% (w/w)): 283 µg/mL
- solubility at 4 h ([3]; aqueous HP-β-CD solution, HP-β-CD 30% (w/w), Cremophor 10% (w/w)): 642 µg/mL
- solubility at 4 h ([3]; aqueous HP-β-CD solution, HP-β-CD 30% (w/w), PVP 12PF 0.5% (w/w)): 532 µg/mL
- solubility at 4 h ([3]; aqueous HP-β-CD solution, HP-β-CD 30% (w/w), PVP 12PF 2.0% (w/w)): 517 µg/mL
- solubility at 4 h ([3]; aqueous HP-β-CD solution, HP-β-CD 30% (w/w), Tween 80 2% (w/w)): 426 µg/mL
- solubility at 4 h ([3]; aqueous HP-β-CD solution, HP-β-CD 30% (w/w), Tween 80 10% (w/w)): 439 µg/mL
- solubility at 4 h ([3]; aqueous HP-β-CD solution, HP-β-CD 30% (w/w), Tween 80 20% (w/w)): 1680 µg/mL
- solubility at 4 h ([3]; aqueous HP-β-CD solution, HP-β-CD 30% (w/w), co-solvent 0% (w/w)): 540 µg/mL
- solubility at 4 h ([3]; aqueous SBE-β-CD solution, SBE-β-CD 20% (w/w), Cremophor 10% (w/w)): 644 µg/mL
- solubility at 4 h ([3]; aqueous SBE-β-CD solution, SBE-β-CD 20% (w/w), PVP 12PF 0.5% (w/w)): 389 µg/mL
- solubility at 4 h ([3]; aqueous SBE-β-CD solution, SBE-β-CD 20% (w/w), PVP 12PF 2.0% (w/w)): 371 µg/mL
- solubility at 4 h ([3]; aqueous SBE-β-CD solution, SBE-β-CD 20% (w/w), Tween 80 2% (w/w)): 374 µg/mL
- solubility at 4 h ([3]; aqueous SBE-β-CD solution, SBE-β-CD 20% (w/w), Tween 80 10% (w/w)): 587 µg/mL
- solubility at 4 h ([3]; aqueous SBE-β-CD solution, SBE-β-CD 20% (w/w), Tween 80 20% (w/w)): 829 µg/mL
- solubility at 4 h ([3]; aqueous SBE-β-CD solution, SBE-β-CD 20% (w/w), co-solvent 0% (w/w)): 375 µg/mL
- solubility at 4 h ([3]; aqueous SBE-β-CD solution, SBE-β-CD 30% (w/w), Cremophor 10% (w/w)): 814 µg/mL
- solubility at 4 h ([3]; aqueous SBE-β-CD solution, SBE-β-CD 30% (w/w), PVP 12PF 0.5% (w/w)): 668 µg/mL
- solubility at 4 h ([3]; aqueous SBE-β-CD solution, SBE-β-CD 30% (w/w), PVP 12PF 2.0% (w/w)): 670 µg/mL
